Reference: ChEMBL document CHEMBL1201862, “PubChem BioAssay data set” (2004)
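Five compound concentrations were applied to cells in 96-well plates for 48 hours; endpoints were derived by simple linear interpolation of the resulting dose-response curve. GI50 = concentration required for 50% inhibition of growth.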 Calls of active or inactive are those of the source. No stated cut-off is given here; in the data, active = GI50 up to about 1.1 µM and inactive = higher.

What was measured:
Assay in all cases: DTP human tumour cell line panel, 48 h
SNB-19 = system: SNB-19
NCI-H522 = system: NCI-H522
SK-MEL-28 = system: SK-MEL-28
HCT-116 = system: HCT-116
LOX IMVI = system: LOX IMVI
DLD-1 = system: DLD-1
NCI-H460 = system: NCI-H460
HT-29 = system: HT-29
SR = system: SR
SF-268 = system: SF-268
CCRF-CEM = system: CCRF-CEM
CAKI-1 = system: CAKI-1
A498 = system: A498
OVCAR-4 = system: OVCAR-4
HCC 2998 = system: HCC 2998
RXF 631 = system: RXF 631
HOP-18 = system: HOP-18
NCI-H226 = system: NCI-H226
786-0 = system: 786-0
DMS-114 = system: DMS-114
LXFL 529 = system: LXFL 529
COLO 205 = system: COLO 205
DMS-273 = system: DMS-273
SF-295 = system: SF-295
EKVX = system: EKVX
HL-60 = system: HL-60
HOP-62 = system: HOP-62
KM-20L2 = system: KM-20L2
M14 = system: M14
SK-MEL-2 = system: SK-MEL-2
K562 = system: K562
OVCAR-8 = system: OVCAR-8
UACC-257 = system: UACC-257
OVCAR-3 = system: OVCAR-3
OVCAR-5 = system: OVCAR-5
SW-620 = system: SW-620
HCT-15 = system: HCT-15
SF-539 = system: SF-539
U-251 = system: U-251
MOLT-4 = system: MOLT-4
SK-OV-3 = system: SK-OV-3
TK-10 = system: TK-10
UACC-62 = system: UACC-62
UO-31 = system: UO-31
SNB-75 = system: SNB-75
RXF 393 = system: RXF 393
SNB-78 = system: SNB-78
KM12 = system: KM12
NCI-H23 = system: NCI-H23
Malme-3M = system: Malme-3M
M19-MEL = system: M19-MEL
SK-MEL-5 = system: SK-MEL-5
IGROV-1 = system: IGROV-1
HOP-92 = system: HOP-92
SN12C = system: SN12C
ACHN = system: ACHN
A549 = system: A549
XF498 = system: XF498
RPMI-8226 = system: RPMI-8226

With `CC(C)(C)c1cc2ccc(C(N)=O)cc2c(=O)[nH]1` the GI50 (SNB-19) was > 100 µM (inactive), the GI50 (NCI-H522) was > 100 µM (inactive) and the GI50 (SK-MEL-28) was > 100 µM (inactive). The GI50 (HCT-116) was 69.7 µM (inactive), the GI50 (LOX IMVI) was 62.7 µM (inactive) and the GI50 (DLD-1) was > 100 µM (inactive). For the same molecule, the GI50 (NCI-H460) was > 100 µM (inactive), the GI50 (HT-29) was > 100 µM (inactive) and the GI50 (SR) was > 100 µM (inactive). For the same molecule, the GI50 (SF-268) was > 100 µM (inactive), the GI50 (CCRF-CEM) was > 100 µM (inactive) and the GI50 (CAKI-1) was 80.2 µM (inactive). The GI50 (A498) was > 100 µM (inactive), the GI50 (OVCAR-4) was > 100 µM (inactive) and the GI50 (HCC 2998) was > 100 µM (inactive). The GI50 (RXF 631) was > 100 µM (inactive), the GI50 (HOP-18) was > 100 µM (inactive) and the GI50 (NCI-H226) was 56 µM (inactive). For the same molecule, the GI50 (786-0) was > 100 µM (inactive), the GI50 (DMS-114) was > 100 µM (inactive) and the GI50 (LXFL 529) was > 100 µM (inactive). For the same molecule, the GI50 (COLO 205) was > 100 µM (inactive), the GI50 (DMS-273) was > 100 µM (inactive) and the GI50 (SF-295) was > 100 µM (inactive). For the same molecule, the GI50 (EKVX) was 82.4 µM (inactive), the GI50 (HL-60) was 79.8 µM (inactive) and the GI50 (HOP-62) was > 100 µM (inactive). For the same molecule, the GI50 (KM-20L2) was > 100 µM (inactive), the GI50 (M14) was > 100 µM (inactive) and the GI50 (SK-MEL-2) was > 100 µM (inactive). The GI50 (K562) was > 100 µM (inactive), the GI50 (OVCAR-8) was > 100 µM (inactive) and the GI50 (UACC-257) was > 100 µM (inactive). For the same molecule, the GI50 (OVCAR-3) was > 100 µM (inactive), the GI50 (OVCAR-5) was > 100 µM (inactive) and the GI50 (SW-620) was > 100 µM (inactive). The GI50 (HCT-15) was over 100 µM, the GI50 (SF-539) was 46.8 µM (inactive) and the GI50 (U-251) was 51.3 µM (inactive). The GI50 (MOLT-4) was > 100 µM (inactive), the GI50 (SK-OV-3) was > 100 µM (inactive) and the GI50 (TK-10) was > 100 µM (inactive). The GI50 (UACC-62) was > 100 µM (inactive), the GI50 (UO-31) was 63.8 µM (inactive) and the GI50 (SNB-75) was 27.2 µM (inactive). The GI50 (RXF 393) was 44.9 µM (inactive), the GI50 (SNB-78) was > 100 µM (inactive) and the GI50 (KM12) was 59.3 µM (inactive). The GI50 (NCI-H23) was > 100 µM (inactive), the GI50 (Malme-3M) was > 100 µM (inactive) and the GI50 (M19-MEL) was > 100 µM (inactive). The GI50 (SK-MEL-5) was > 100 µM (inactive), the GI50 (IGROV-1) was > 100 µM (inactive) and the GI50 (HOP-92) was 95.1 µM (inactive). For the same molecule, the GI50 (SN12C) was > 100 µM (inactive), the GI50 (ACHN) was > 100 µM (inactive) and the GI50 (A549) was > 100 µM (inactive).

With `N=C(N)c1csc([C@@H]2O[C@H](CO)[C@@H](O)[C@H]2O)n1` the GI50 (SNB-19) was > 100 µM (inactive), the GI50 (XF498) was > 100 µM (inactive) and the GI50 (SK-MEL-28) was > 100 µM (inactive). For the same molecule, the GI50 (HCT-116) was > 100 µM (inactive), the GI50 (LOX IMVI) was > 100 µM (inactive) and the GI50 (DLD-1) was > 100 µM (inactive). For the same molecule, the GI50 (NCI-H460) was > 100 µM (inactive), the GI50 (SR) was > 100 µM (inactive) and the GI50 (SF-268) was > 100 µM (inactive). The GI50 (CCRF-CEM) was > 100 µM (inactive), the GI50 (CAKI-1) was > 100 µM (inactive) and the GI50 (OVCAR-4) was > 100 µM (inactive). The GI50 (HCC 2998) was > 100 µM (inactive), the GI50 (RXF 631) was > 100 µM (inactive) and the GI50 (HOP-18) was 59.7 µM (inactive). For the same molecule, the GI50 (NCI-H226) was 89.5 µM (inactive), the GI50 (RPMI-8226) was > 100 µM (inactive) and the GI50 (LXFL 529) was > 100 µM (inactive). The GI50 (DMS-273) was > 100 µM (inactive), the GI50 (SF-295) was > 100 µM (inactive) and the GI50 (EKVX) was > 100 µM (inactive). For the same molecule, the GI50 (HL-60) was > 100 µM (inactive), the GI50 (M14) was > 100 µM (inactive) and the GI50 (SK-MEL-2) was > 100 µM (inactive). The GI50 (K562) was > 100 µM (inactive), the GI50 (OVCAR-8) was > 100 µM (inactive) and the GI50 (UACC-257) was > 100 µM (inactive). For the same molecule, the GI50 (SW-620) was > 100 µM (inactive), the GI50 (HCT-15) was over 100 µM and the GI50 (SF-539) was > 100 µM (inactive). The GI50 (U-251) was > 100 µM (inactive), the GI50 (MOLT-4) was > 100 µM (inactive) and the GI50 (SK-OV-3) was > 100 µM (inactive). The GI50 (TK-10) was > 100 µM (inactive), the GI50 (UO-31) was > 100 µM (inactive) and the GI50 (SNB-75) was 80.9 µM (inactive). For the same molecule, the GI50 (RXF 393) was > 100 µM (inactive), the GI50 (SNB-78) was > 100 µM (inactive) and the GI50 (KM12) was > 100 µM (inactive). For the same molecule, the GI50 (NCI-H23) was > 100 µM (inactive), the GI50 (Malme-3M) was > 100 µM (inactive) and the GI50 (M19-MEL) was > 100 µM (inactive). For the same molecule, the GI50 (SK-MEL-5) was > 100 µM (inactive), the GI50 (IGROV-1) was > 100 µM (inactive) and the GI50 (SN12C) was > 100 µM (inactive). For the same molecule, the GI50 (ACHN) was > 100 µM (inactive) and the GI50 (A549) was > 100 µM (inactive).
